Measured values as given in PMC5218480 (PLoS ONE, 2017).

System: MV-4-11 cells
Test: Gene expression microarray analysis (Affymetrix PrimeView) and GSEA
Format: cell-based, human
Design: RFU PODN (11730768_x_at) / Fold change /veh PODN (11730768_x_at) / RFU LINC00158 (11744669_a_at) / Fold change /veh LINC00158 (11744669_a_at) / RFU DUSP10 (11751237_a_at) / Fold change /veh DUSP10 (11751237_a_at) / RFU ID3 (11757404_x_at) / Fold change /veh ID3 (11757404_x_at) / RFU PLEKHG5 (11737974_s_at) / Fold change /veh PLEKHG5 (11737974_s_at) / RFU LRRC4B (11730491_at) / Fold change /veh LRRC4B (11730491_at) / RFU GIMAP4 (11747438_a_at) / Fold change /veh GIMAP4 (11747438_a_at) / RFU KRT8 (11758183_x_at) / Fold change /veh KRT8 (11758183_x_at) / RFU CNN1 (11734310_a_at) / Fold change /veh CNN1 (11734310_a_at) / RFU VPS37D (11726825_at) / Fold change /veh VPS37D (11726825_at) / RFU C10orf10 (11716522_x_at) / Fold change /veh C10orf10 (11716522_x_at) / RFU KIR2DL2 /// KIR2DL4 /// KIR2DL5A /// KIR2DL5B /// KIR2DS1 /// KIR2DS2 /// KIR2DS3 /// KIR2DS4 /// KIR3DL3 /// KIR3DL3 /// KIR3DS1 (11738374_at) / Fold change /veh KIR2DL2 /// KIR2DL4 /// KIR2DL5A /// KIR2DL5B /// KIR2DS1 /// KIR2DS2 /// KIR2DS3 /// KIR2DS4 /// KIR3DL3 /// KIR3DL3 /// KIR3DS1 (11738374_at) / RFU C1QL1 (11718748_at) / Fold change /veh C1QL1 (11718748_at) / RFU TMPRSS4 (11747572_a_at) / Fold change /veh TMPRSS4 (11747572_a_at) / RFU HAMP (11756126_x_at) / Fold change /veh HAMP (11756126_x_at) / RFU RNFT2 (11725882_a_at) / Fold change /veh RNFT2 (11725882_a_at) / RFU NR4A2 (11747474_a_at) / Fold change /veh NR4A2 (11747474_a_at) / RFU ABCC12 (11746883_a_at) / Fold change /veh ABCC12 (11746883_a_at) / RFU TMEM136 (11760407_x_at) / Fold change /veh TMEM136 (11760407_x_at) / RFU CLDN22 /// WWC2 (11732394_at) / Fold change /veh CLDN22 /// WWC2 (11732394_at) / RFU HLA-DPB1 (11760878_x_at) / Fold change /veh HLA-DPB1 (11760878_x_at) / RFU SPINT1 (11716480_a_at) / Fold change /veh SPINT1 (11716480_a_at) / RFU GAP43 (11754022_s_at) / Fold change /veh GAP43 (11754022_s_at) / RFU A4GNT (11735810_at) / Fold change /veh A4GNT (11735810_at) / RFU PRB3 (11715151_x_at) / Fold change /veh PRB3 (11715151_x_at) / RFU TUBB4B (11761932_at) / Fold change /veh TUBB4B (11761932_at) / RFU CAPN14 (11732068_a_at) / Fold change /veh CAPN14 (11732068_a_at) / RFU TMCC2 (11721928_a_at) / Fold change /veh TMCC2 (11721928_a_at) / RFU IRGQ (11745062_a_at) / Fold change /veh IRGQ (11745062_a_at) / RFU FAM174B (11720279_a_at) / Fold change /veh FAM174B (11720279_a_at) / RFU TMPRSS4 (11748680_a_at) / Fold change /veh TMPRSS4 (11748680_a_at) / RFU FAM212B (11763350_a_at) / Fold change /veh FAM212B (11763350_a_at) / RFU PLEKHG5 (11743358_a_at) / Fold change /veh PLEKHG5 (11743358_a_at) / RFU ZSCAN30 (11745921_a_at) / Fold change /veh ZSCAN30 (11745921_a_at) / RFU CMKLR1 (11741424_a_at) / Fold change /veh CMKLR1 (11741424_a_at) / RFU LOC101060620 /// MAPK8IP1 (11723275_at) / Fold change /veh LOC101060620 /// MAPK8IP1 (11723275_at) / RFU SPTSSB (11747773_x_at) / Fold change /veh SPTSSB (11747773_x_at) / RFU PRSS12 (11739890_at) / Fold change /veh PRSS12 (11739890_at) / RFU BIN1 (11741810_x_at) / Fold change /veh BIN1 (11741810_x_at) / RFU WNT11 (11732464_a_at) / Fold change /veh WNT11 (11732464_a_at) / RFU C10orf10 (11716521_a_at) / Fold change /veh C10orf10 (11716521_a_at) / RFU C5orf56 (11738089_at) / Fold change /veh C5orf56 (11738089_at) / RFU CYB561 (11721691_x_at) / Fold change /veh CYB561 (11721691_x_at) / RFU ANKRD19P (11752326_a_at) / Fold change /veh ANKRD19P (11752326_a_at) / RFU OR2T12 /// OR2T33 /// OR2T8 (11738714_s_at) / Fold change /veh OR2T12 /// OR2T33 /// OR2T8 (11738714_s_at) / RFU VCAN (11748164_a_at) / Fold change /veh VCAN (11748164_a_at) / RFU JSRP1 (11732532_at) / Fold change /veh JSRP1 (11732532_at) / RFU KRTAP10-11 (11738290_x_at) / Fold change /veh KRTAP10-11 (11738290_x_at) / RFU MYO3A (11730013_a_at) / Fold change /veh MYO3A (11730013_a_at) / RFU EBF3 (11725865_a_at) / Fold change /veh EBF3 (11725865_a_at) / RFU CAMK2N1 (11719241_x_at) / Fold change /veh CAMK2N1 (11719241_x_at) / RFU C5orf56 (11738088_a_at) / Fold change /veh C5orf56 (11738088_a_at) / RFU OLFML3 (11715873_a_at) / Fold change /veh OLFML3 (11715873_a_at) / RFU LOC100653217 /// NTM (11731650_a_at) / Fold change /veh LOC100653217 /// NTM (11731650_a_at) / RFU MAPK11 (11762145_a_at) / Fold change /veh MAPK11 (11762145_a_at) / RFU FIZ1 (11724087_x_at) / Fold change /veh FIZ1 (11724087_x_at) / RFU OASL (11726364_x_at) / Fold change /veh OASL (11726364_x_at) / RFU SOX15 (11748057_x_at) / Fold change /veh SOX15 (11748057_x_at) / RFU CD79A (11719716_a_at) / Fold change /veh CD79A (11719716_a_at) / RFU HIST1H1D (11736915_at) / Fold change /veh HIST1H1D (11736915_at) / RFU CASKIN2 (11723855_a_at) / Fold change /veh CASKIN2 (11723855_a_at) / RFU LOC730098 (11760151_x_at) / Fold change /veh LOC730098 (11760151_x_at) / RFU OR4N2 (11742367_at) / Fold change /veh OR4N2 (11742367_at) / RFU PRRT2 (11749266_a_at) / Fold change /veh PRRT2 (11749266_a_at) / RFU SNX32 (11753110_a_at) / Fold change /veh SNX32 (11753110_a_at) / RFU CDHR5 (11726645_a_at) / Fold change /veh CDHR5 (11726645_a_at) / RFU RCAN1 (11760418_a_at) / Fold change /veh RCAN1 (11760418_a_at) / RFU FAM167A (11723789_a_at) / Fold change /veh FAM167A (11723789_a_at) / RFU FAM26E (11764081_at) / Fold change /veh FAM26E (11764081_at) / RFU ISYNA1 (11749810_s_at) / Fold change /veh ISYNA1 (11749810_s_at) / RFU ACY1 (11761880_at) / Fold change /veh ACY1 (11761880_at) / RFU 11764098_at / Fold change /veh 11764098_at / RFU SAMD14 (11745864_x_at) / Fold change /veh SAMD14 (11745864_x_at) / RFU NPB (11741838_a_at) / Fold change /veh NPB (11741838_a_at) / RFU TMPRSS6 (11731388_a_at) / Fold change /veh TMPRSS6 (11731388_a_at) / RFU KRTAP10-2 (11738614_at) / Fold change /veh KRTAP10-2 (11738614_at) / RFU ARHGAP8 /// PRR5-ARHGAP8 (11727945_x_at) / Fold change /veh ARHGAP8 /// PRR5-ARHGAP8 (11727945_x_at) / RFU KRTAP5-7 /// NADSYN1 (11734609_at) / Fold change /veh KRTAP5-7 /// NADSYN1 (11734609_at) / RFU RASL12 (11751679_a_at) / Fold change /veh RASL12 (11751679_a_at) / RFU CDKN2B (11736163_a_at) / Fold change /veh CDKN2B (11736163_a_at) / RFU PRF1 (11729649_at) / Fold change /veh PRF1 (11729649_at) / RFU, ZNF638 /// ZNF638-IT1 / Fold change vs veh, ZNF638 /// ZNF638-IT1 / RFU, PANK3 / Fold change vs veh, PANK3 / RFU, SH3YL1 / Fold change vs veh, SH3YL1 / RFU, ZEB2 / Fold change vs veh, ZEB2 / RFU, NRIP1 / Fold change vs veh, NRIP1 / RFU, PTTG1IP / Fold change vs veh, PTTG1IP / RFU, CAPN2 / Fold change vs veh, CAPN2 / RFU, MED14 / Fold change vs veh, MED14 / RFU, SNORA58 / Fold change vs veh, SNORA58 / RFU, C1orf63 / Fold change vs veh, C1orf63 / RFU, LRRFIP1 / Fold change vs veh, LRRFIP1 / RFU, NDUFAF7 / Fold change vs veh, NDUFAF7 / RFU, SLC12A2 / Fold change vs veh, SLC12A2 / RFU, IBTK / Fold change vs veh, IBTK / RFU, ESF1 / Fold change vs veh, ESF1 / Fold change vs veh, TMEM50B / RFU, TAOK1 / Fold change vs veh, TAOK1 / RFU, ACBD3 / Fold change vs veh, ACBD3 / RFU, TMA16 / Fold change vs veh, TMA16 / RFU, RWDD3 / Fold change vs veh, RWDD3 / RFU, BCAT1 / Fold change vs veh, BCAT1 / RFU, EDEM3 / Fold change vs veh, EDEM3 / RFU, TMEM33 / Fold change vs veh, TMEM33 / RFU, WDR75 / Fold change vs veh, WDR75 / RFU, AHCTF1 / Fold change vs veh, AHCTF1 / RFU, TFRC / Fold change vs veh, TFRC / RFU, ZDHHC17 / Fold change vs veh, ZDHHC17 / RFU, NOM1 / Fold change vs veh, NOM1 / RFU, ARL8B / Fold change vs veh, ARL8B / RFU, ZBTB11 / Fold change vs veh, ZBTB11 / RFU, TAMM41 / Fold change vs veh, TAMM41 / RFU, KIAA1704 /// LOC100996395 / Fold change vs veh, KIAA1704 /// LOC100996395 / RFU, ING1 / Fold change vs veh, ING1 / RFU, TRMT61B / Fold change vs veh, TRMT61B / RFU, FUBP3 / Fold change vs veh, FUBP3 / RFU, TP53 / Fold change vs veh, TP53 / RFU, TNKS2 / Fold change vs veh, TNKS2 / RFU, ZFP14 / Fold change vs veh, ZFP14 / RFU, ACTR2 / Fold change vs veh, ACTR2 / RFU, PPP3R1 / Fold change vs veh, PPP3R1 / RFU, PIK3R1 / Fold change vs veh, PIK3R1 / RFU, HNRNPA1 / Fold change vs veh, HNRNPA1 / RFU, RNF170 / Fold change vs veh, RNF170 / RFU, ZNF28 / Fold change vs veh, ZNF28 / RFU, RNGTT / Fold change vs veh, RNGTT / RFU, OGT / Fold change vs veh, OGT / RFU, BRD1 / Fold change vs veh, BRD1 / RFU, MARS / Fold change vs veh, MARS / RFU, ZNF655 / Fold change vs veh, ZNF655 / RFU, FAHD1 / Fold change vs veh, FAHD1 / RFU, BDP1 / Fold change vs veh, BDP1 / RFU, LRRCC1 / Fold change vs veh, LRRCC1 / RFU, ARID1A / Fold change vs veh, ARID1A / RFU, ZNF146 / Fold change vs veh, ZNF146 / RFU, ZNF330 / Fold change vs veh, ZNF330 / RFU, GPN3 / Fold change vs veh, GPN3 / RFU, C9orf123 / Fold change vs veh, C9orf123 / RFU, N4BP2L2 / Fold change vs veh, N4BP2L2 / RFU, ARFIP1 / Fold change vs veh, ARFIP1 / RFU, FAM179B / Fold change vs veh, FAM179B / RFU, BCL10 / Fold change vs veh, BCL10 / RFU, UHRF1BP1L / Fold change vs veh, UHRF1BP1L / RFU, BET1 / Fold change vs veh, BET1 / RFU, CNOT2 / Fold change vs veh, CNOT2 / RFU, ZNF268 / Fold change vs veh, ZNF268 / Fold change vs veh, ZNF507 / RFU, DGCR2 / Fold change vs veh, DGCR2 / RFU, WDSUB1 / Fold change vs veh, WDSUB1 / Fold change vs veh, HSP90B1 /// MIR3652 / RFU, ADSS / Fold change vs veh, ADSS / RFU, GK / Fold change vs veh, GK / RFU, ZNF148 / Fold change vs veh, ZNF148 / RFU, TAF9 / Fold change vs veh, TAF9 / RFU, SLC1A5 / Fold change vs veh, SLC1A5 / RFU, SLMO2 / Fold change vs veh, SLMO2 / RFU, ABCC4 / Fold change vs veh, ABCC4 / RFU, LOC101060439 /// RAP1B / Fold change vs veh, LOC101060439 /// RAP1B / RFU, RFX7 / Fold change vs veh, RFX7 / RFU, GTPBP10 / Fold change vs veh, GTPBP10 / RFU, CNEP1R1 / Fold change vs veh, CNEP1R1 / RFU, BIVM-ERCC5 /// ERCC5 / Fold change vs veh, BIVM-ERCC5 /// ERCC5 / RFU, ILF3 / Fold change vs veh, ILF3 / RFU 11762660_at / Fold change /veh 11762660_at / RFU VCAN (11757783_s_at) / Fold change /veh VCAN (11757783_s_at) / RFU DDX43 (11728927_at) / Fold change /veh DDX43 (11728927_at) / RFU KRT8 (11758188_x_at) / Fold change /veh KRT8 (11758188_x_at) / RFU NKD1 (11759106_at) / Fold change /veh NKD1 (11759106_at) / RFU SRD5A1 (11742802_a_at) / Fold change /veh SRD5A1 (11742802_a_at) / RFU TPSAB1 /// TPSB2 (11721975_s_at) / Fold change /veh TPSAB1 /// TPSB2 (11721975_s_at) / RFU GSTM3 (11746129_a_at) / Fold change /veh GSTM3 (11746129_a_at) / RFU IL23R (11737362_x_at) / Fold change /veh IL23R (11737362_x_at) / RFU TMEM51 (11727254_a_at) / Fold change /veh TMEM51 (11727254_a_at) / RFU PIWIL2 (11732686_x_at) / Fold change /veh PIWIL2 (11732686_x_at) / RFU ORM1 (11744905_x_at) / Fold change /veh ORM1 (11744905_x_at) / RFU CCDC152 (11743942_at) / Fold change /veh CCDC152 (11743942_at) / RFU ECM1 (11717891_a_at) / Fold change /veh ECM1 (11717891_a_at) / RFU IL23R (11748794_a_at) / Fold change /veh IL23R (11748794_a_at) / RFU TNFAIP8L3 (11732012_x_at) / Fold change /veh TNFAIP8L3 (11732012_x_at) / RFU MBOAT4 (11741988_at) / Fold change /veh MBOAT4 (11741988_at) / RFU 11764193_at / Fold change /veh 11764193_at / RFU TMEM53 (11763286_at) / Fold change /veh TMEM53 (11763286_at) / RFU MAGEB2 (11727129_at) / Fold change /veh MAGEB2 (11727129_at) / RFU TMEM200A (11744735_a_at) / Fold change /veh TMEM200A (11744735_a_at) / RFU CCDC152 (11751479_a_at) / Fold change /veh CCDC152 (11751479_a_at) / RFU FAM211A (11726209_a_at) / Fold change /veh FAM211A (11726209_a_at) / RFU RGS16 (11746705_a_at) / Fold change /veh RGS16 (11746705_a_at) / RFU VCAN (11755009_s_at) / Fold change /veh VCAN (11755009_s_at) / RFU RHOB (11743442_s_at) / Fold change /veh RHOB (11743442_s_at) / RFU RGS16 (11720943_a_at) / Fold change /veh RGS16 (11720943_a_at) / RFU RGS16 (11720944_at) / Fold change /veh RGS16 (11720944_at) / RFU, VPS4B / Fold change vs veh, VPS4B / RFU, CREB1 / Fold change vs veh, CREB1 / RFU, DNAJC13 / Fold change vs veh, DNAJC13 / RFU, GNAQ / Fold change vs veh, GNAQ / RFU, CDK5R1 / Fold change vs veh, CDK5R1 / RFU, ZRANB3 / Fold change vs veh, ZRANB3 / RFU, CUL4A / Fold change vs veh, CUL4A / RFU, CCNY / Fold change vs veh, CCNY / RFU, UFL1 / Fold change vs veh, UFL1 / RFU, COG3 / Fold change vs veh, COG3 / RFU, DIAPH2 / Fold change vs veh, DIAPH2 / RFU, SKA2 / Fold change vs veh, SKA2 / RFU, AFF3 / Fold change vs veh, AFF3 / RFU, LMF1 / Fold change vs veh, LMF1 / RFU, IPO11 / Fold change vs veh, IPO11 / RFU, DFFB / Fold change vs veh, DFFB / RFU, FOXP1 / Fold change vs veh, FOXP1 / RFU, CARD8 / Fold change vs veh, CARD8 / RFU, STRN3 / Fold change vs veh, STRN3 / RFU, ADK / Fold change vs veh, ADK / RFU, RASSF2 / Fold change vs veh, RASSF2 / RFU, WIPF1 / Fold change vs veh, WIPF1 / RFU, LARP1B / Fold change vs veh, LARP1B / RFU, RASA1 / Fold change vs veh, RASA1 / RFU, RB1 / Fold change vs veh, RB1 / RFU, PPFIA1 / Fold change vs veh, PPFIA1 / RFU, MAT2A / Fold change vs veh, MAT2A / RFU, CCT5 / Fold change vs veh, CCT5 / RFU, WDR92 / Fold change vs veh, WDR92 / RFU, CUX1 / Fold change vs veh, CUX1 / RFU, TTC7A / Fold change vs veh, TTC7A / RFU, TMEM135 / Fold change vs veh, TMEM135 / RFU, DEPTOR / Fold change vs veh, DEPTOR / RFU, CPM / Fold change vs veh, CPM / RFU, DNAJB6 / Fold change vs veh, DNAJB6 / RFU, CACNA2D3 / Fold change vs veh, CACNA2D3 / RFU, DTX4 / Fold change vs veh, DTX4 / RFU, TFCP2 / Fold change vs veh, TFCP2 / RFU, GMCL1 /// GMCL1P1 / Fold change vs veh, GMCL1 /// GMCL1P1 / RFU, AEBP2 / Fold change vs veh, AEBP2 / RFU, SNHG1 /// SNORD22 /// SNORD25 /// SNORD26 /// SNORD27 /// SNORD28 /// SNORD29 /// SNORD31 / Fold change vs veh, SNHG1 /// SNORD22 /// SNORD25 /// SNORD26 /// SNORD27 /// SNORD28 /// SNORD29 /// SNORD31 / Fold change (Aza/veh), C12orf56 (ProbeSet 11735607_a_at) / Fold change (ACY-1035/veh), C12orf56 (ProbeSet 11735607_a_at) / Fold change (Aza/veh), FGFR1OP (ProbeSet 11751329_s_at) / Fold change (ACY-1035/veh), FGFR1OP (ProbeSet 11751329_s_at) / Fold change (Aza/veh), VPS36 (ProbeSet 11739960_a_at) / Fold change (ACY-1035/veh), VPS36 (ProbeSet 11739960_a_at) / RFU SYPL1 (11715823_x_at) / Fold change /veh SYPL1 (11715823_x_at) / RFU IGFBP7 (11715501_s_at) / Fold change /veh IGFBP7 (11715501_s_at) / RFU REEP3 (11722064_at) / Fold change /veh REEP3 (11722064_at) / RFU IGLL1 (11728026_x_at) / Fold change /veh IGLL1 (11728026_x_at): dose or concentration left out as unconfirmed
Conditions: MV-4-11 cells, 48 hours

Question: Which “RFU PRSS12 (11739890_at)” value does the source give for Nc1ccc(-c2cccs2)cc1NC(=O)c1ccc2c(c1)cc(C1CC1)n2CCN1CCOCC1 [ACY-1035] here?
Answer: The value was 8.28 RFU.
